Measured values from the supplement of paper PMC11208160.

Assay: recombinant UMI read abundance after kanamycin selection (control-corrected) (log10(CPM+1)); higher = more efficient recombination; extreme values may be limits of the assay; sequences stand for … in AGTGCAGAGAAAATCGGCCAGTTTTCTCTGCCTGCAGTCCGCATGCCGTGGGACCCCTTGGGTTCTAACCTGTTGCCTAGATTTATGCAGCGGACTGCCTTTCTCCCAAAGTGATAAACCGG…AGGTTGGTTTCACT; site = the 11-nt donor
In short: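 For the IS621 bridge recombinase, a pooled Escherichia coli screen tested donor and donor-binding-loop pairs. Cells received the pair library together with a target plasmid encoding a fixed target and T7-inducible recombinase, then went onto IPTG (0.07 mM) plus kanamycin or unselected plates in duplicate. After PCR across the donor–target junction and sequencing, recombinant UMI counts were normalized to CPM, averaged, and scaled by control-derived factors. Each value is given as log10(CPM+1).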
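Note: IS621 bridge recombinase in Escherichia coli cells against a fixed T5 target plasmid.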

Sequence | recombinant UMI read abundance (log10)
GCAGGTGCATGGACCGGTTTTCCCGGTAATCCGTATTTGAT (site GCAGGTGCTAT) | 2.1
GCAGGTGCATGGACCGGTTTTCCCGGTAATCCGTATTTGAT (site TCAGGTGCTAT) | 1.52
GCAGTATCATGGACCGGTTTTCCCGGTAATCCGTATTTGCA (site ACAGTATCTTG) | 2.95
GCAGTATCATGGACCGGTTTTCCCGGTAATCCGTATTTGCA (site CCAGTATCTTG) | 2.09
GCAGTATCATGGACCGGTTTTCCCGGTAATCCGTATTTGCA (site GCAGTATCTTG) | 2.68
GCAGTATCATGGACCGGTTTTCCCGGTAATCCGTATTTGCA (site TCAGTATCTTG) | 1.87
GCAGTATCATGGACCGGTTTTCCCGGTAATCCGTATTTGGA (site ACAGTATCTTG) | 0.785
GCAGTATCATGGACCGGTTTTCCCGGTAATCCGTATTTGGA (site GCAGTATCTTC) | 2.1
GCATCGACATGGACCGGTTTTCCCGGTAATCCGTATTTGCA (site GCATCGACTTG) | 2.56
GCATCTACATGGACCGGTTTTCCCGGTAATCCGTATTTGTG (site ACATCTACTCA) | 0.6
GCATCTACATGGACCGGTTTTCCCGGTAATCCGTATTTGTG (site CCATCTACTCA) | 0.104
GCATCTACATGGACCGGTTTTCCCGGTAATCCGTATTTGTG (site GCATCTACTCA) | 0.968
GCATCTACATGGACCGGTTTTCCCGGTAATCCGTATTTGTG (site TCATCTACTCA) | 1.87
GCATGCACATGGACCGGTTTTCCCGGTAATCCGTATTTGTA (site GAATGCACTTA) | 0.245
GCATGCACATGGACCGGTTTTCCCGGTAATCCGTATTTGTA (site GCATGCACTTA) | 2.41
GCATGCACATGGACCGGTTTTCCCGGTAATCCGTATTTGTA (site GGATGCACTTA) | 0.364
GCATGCACATGGACCGGTTTTCCCGGTAATCCGTATTTGTA (site GTATGCACTTA) | 1.01
GCATGCGCATGGACCGGTTTTCCCGGTAATCCGTATTTGTT (site GCATGCGCTAA) | 1.82
GCATTGTCATGGACCGGTTTTCCCGGTAATCCGTATTTGCA (site GCATTGTCTTG) | 2.76

Sequence | recombinant UMI read abundance (log10)
GCCAAAACATGGACCGGTTTTCCCGGTAATCCGTATTTGCT (site GCAAAAACTAG) | 1.08
GCCAAAACATGGACCGGTTTTCCCGGTAATCCGTATTTGCT (site GCCAAAACTAG) | 1
GCCAAAACATGGACCGGTTTTCCCGGTAATCCGTATTTGCT (site GCGAAAACTAG) | 0
GCCAAAACATGGACCGGTTTTCCCGGTAATCCGTATTTGCT (site GCTAAAACTAG) | 0
GCCAAACCATGGACCGGTTTTCCCGGTAATCCGTATTTGGT (site GACAAACCTAC) | 0
GCCAAACCATGGACCGGTTTTCCCGGTAATCCGTATTTGGT (site GCCAAACCTAC) | 0
GCCAAACCATGGACCGGTTTTCCCGGTAATCCGTATTTGGT (site GGCAAACCTAC) | 0.0048
GCCAAACCATGGACCGGTTTTCCCGGTAATCCGTATTTGGT (site GTCAAACCTAC) | 0
GCCAACACATGGACCGGTTTTCCCGGTAATCCGTATTTGAT (site GCCAACACTAT) | 1.9
GCCAAGCCATGGACCGGTTTTCCCGGTAATCCGTATTTGGG (site GCAAAGCCTCC) | 0.00342
GCCAAGCCATGGACCGGTTTTCCCGGTAATCCGTATTTGGG (site GCCAAGCCTCC) | 0.0135
GCCAAGCCATGGACCGGTTTTCCCGGTAATCCGTATTTGGG (site GCGAAGCCTCC) | 0
GCCAAGCCATGGACCGGTTTTCCCGGTAATCCGTATTTGGG (site GCTAAGCCTCC) | 0
GCCAATCCATGGACCGGTTTTCCCGGTAATCCGTATTTGAA (site GACAATCCTTT) | 0.01
GCCAATCCATGGACCGGTTTTCCCGGTAATCCGTATTTGAA (site GCCAATCCTTT) | 0.53
GCCAATCCATGGACCGGTTTTCCCGGTAATCCGTATTTGAA (site GGCAATCCTTT) | 0
GCCAATCCATGGACCGGTTTTCCCGGTAATCCGTATTTGAA (site GTCAATCCTTT) | 0.00267
GCCACAGCATGGACCGGTTTTCCCGGTAATCCGTATTTGTT (site GCCACAGCTAA) | 1.48
GCCACCCCATGGACCGGTTTTCCCGGTAATCCGTATTTGTA (site GCCACACCTTA) | 0.0331

Sequence | recombinant UMI read abundance (log10)
GCCACCCCATGGACCGGTTTTCCCGGTAATCCGTATTTGTA (site GCCACCCCTTA) | 0
GCCACCCCATGGACCGGTTTTCCCGGTAATCCGTATTTGTA (site GCCACGCCTTA) | 0
GCCACCCCATGGACCGGTTTTCCCGGTAATCCGTATTTGTA (site GCCACTCCTTA) | 0.0101
GCCACCGCATGGACCGGTTTTCCCGGTAATCCGTATTTGCG (site ACCACCGCTCG) | 0.439
GCCACCGCATGGACCGGTTTTCCCGGTAATCCGTATTTGCG (site CCCACCGCTCG) | 0.0179
GCCACCGCATGGACCGGTTTTCCCGGTAATCCGTATTTGCG (site GCCACCGCTCG) | 0.939
GCCACCGCATGGACCGGTTTTCCCGGTAATCCGTATTTGCG (site TCCACCGCTCG) | 0.00586
GCCACGCCATGGACCGGTTTTCCCGGTAATCCGTATTTGTT (site GCCACGCCTAA) | 0.0554
GCCACGCCATGGACCGGTTTTCCCGGTAATCCGTATTTGTT (site GCCACGCCTCA) | 0.0173
GCCACGCCATGGACCGGTTTTCCCGGTAATCCGTATTTGTT (site GCCACGCCTGA) | 0
GCCACGCCATGGACCGGTTTTCCCGGTAATCCGTATTTGTT (site GCCACGCCTTA) | 0.00385
GCCACGTCATGGACCGGTTTTCCCGGTAATCCGTATTTGTA (site GCCACGACTTA) | 0.0796
GCCACGTCATGGACCGGTTTTCCCGGTAATCCGTATTTGTA (site GCCACGCCTTA) | 0.0201
GCCACGTCATGGACCGGTTTTCCCGGTAATCCGTATTTGTA (site GCCACGGCTTA) | 0
GCCACGTCATGGACCGGTTTTCCCGGTAATCCGTATTTGTA (site GCCACGTCTTA) | 2.47
GCCACTGCATGGACCGGTTTTCCCGGTAATCCGTATTTGCC (site GCAACTGCTGG) | 1.19
GCCACTGCATGGACCGGTTTTCCCGGTAATCCGTATTTGCC (site GCCACTGCTGG) | 1.63
GCCACTGCATGGACCGGTTTTCCCGGTAATCCGTATTTGCC (site GCGACTGCTGG) | 0
GCCACTGCATGGACCGGTTTTCCCGGTAATCCGTATTTGCC (site GCTACTGCTGG) | 0
